Measurements from PMC2217226 (The Journal of General Physiology, 2000).
“Also recorded” adds a separate entry of the source. Like-named read-outs stand apart in the source and are kept apart here.

Legend:
[1] = tested on: SACs in audiovestibular hair cells; conditions: ref Jorgensen and Ohmori 1988; cited from earlier work
[2] = tested on: SACs; conditions: cited from earlier work
[3] = tested on: endogenous SACs in oocytes; conditions: ref Lane et al., 1991; cited from earlier work
[4] = tested on: epithelial Na^+ channels; conditions: no separate reference printed; cited from earlier work
[5] = tested on: swelling-activated whole-cell current in adult astrocytes; type: cell-based, rat
[6] = tested on: swelling-activated anion current in astrocytoma cells; conditions: ref Bakhramov et al. 1995; cited from earlier work
[7] = tested on: SACs (cation-selective stretch-activated channels) in outside-out patches from adult rat astrocytes; test: SAC activity in outside-out patches, pressure-activated, patch clamp; type: cell-based
[8] = tested on: glutamate-stimulated K^+ influx in neonatal astrocytes; conditions: ref Bender et al. 1998; cited from earlier work
[9] = tested on: NMDA channel; conditions: ref Bender et al. 1998; cited from earlier work
[10] = tested on: rabbit hearts, atrial fibrillation associated with dilatation; conditions: ref Bode et al. 1999; cited from earlier work
[11] = tested on: normal electrical activity of the heart, rabbit; conditions: Langendorff-perfused rabbit hearts, preliminary; ref Bode et al. 1999; cited from earlier work
[12] = tested on: whole-cell current of rabbit CHF ventricular myocytes in 1.5T hypertonic saline; type: cell-based; conditions: 0.4 μM GsMTx-4, 1.5T hypertonic saline, averages from five cells
[13] = Overall charge of the toxin; type: physicochemical; conditions: from the sequence
[14] = tested on: ventricular myocytes from rabbits with aortic regurgitation-induced CHF; test: Myocyte cell volume during perforated patch voltage clamp; type: cell-based, rabbit
[15] = tested on: ICl,swell (outwardly rectifying Cl^− current), rabbit CHF ventricular myocytes; test: Swelling-activated anion current in CHF ventricular myocytes, perforated patch; type: cell-based
[16] = tested on: voltage-sensitive whole-cell currents of astrocytes; test: Voltage-sensitive whole-cell currents, perforated patch; type: cell-based, rat; conditions: concentration not printed at place
[17] = tested on: K^+ channel; conditions: Fig. 8 legend; ref Swartz and MacKinnon 1995; cited from earlier work
[18] = tested on: E-type Ca^2+ channels; conditions: Fig. 8 legend; ref Newcomb et al. 1998; cited from earlier work
[19] = introduction, ref Hamill and McBride 1996, Sachs and Morris 1998

For N=C(N)NC(=O)c1nc(Cl)c(N)nc1N [Amiloride], the “block of SACs in audiovestibular hair cells” value [1] is given as “blocks”, the “blocking activity against SACs” value [2, 19] is given as “low affinity blocking activity” and the “block of endogenous SACs in oocytes” value [3] is given as “blocks”. The “affinity for epithelial Na^+ channels” value [4] was “nanomolar affinity”.
For O=S(=O)(O)c1cc(N=C=S)ccc1C=Cc1ccc(N=C=S)cc1S(=O)(=O)O [DIDS, 4,4′-diisothiocyanatostilbene-2,2′-disulphonic acid, reference compound], the “effect on swelling-activated current (in words)” value ([5]; 50 μM DIDS, 30 s hypotonic saline, especially at depolarized potentials, n = 6) is given as “significant reduction in current” and the “reduction of swelling-activated anion current” value [6] is given as “significant reduction”.
In the case of COc1ccc([C@@H]2Sc3ccccc3N(CCN(C)C)C(=O)[C@@H]2OC(C)=O)cc1 [Diltiazem], the “blocking activity against SACs” value [2, 19] is listed as “low affinity blocking activity”.
With N[C@@H](CCC(=O)O)C(=O)O [Glutamate, reference compound] the “Activity on astrocyte SACs” value ([7]; 10 μM, n = 2 trials, outside-out patches at −50 mV) was “No activation” and the “activation of SACs in unstretched patches” value ([7]; 10 μM, unstretched patches that contained SACs) was “did not activate SACs”.
In the case of C[C@]12N[C@H](Cc3ccccc31)c1ccccc12 [MK801], the “effect on glutamate-stimulated K^+ influx” value [8] is listed as “inhibits glutamate-stimulated K^+ influx” and the “affinity as NMDA open-channel blocker” value [9] is listed as “nanomolar affinity”.
In the case of COC(=O)C1=C(C)NC(C)=C(C(=O)OC)C1c1ccccc1[N+](=O)[O-] [Nifedipine, reference compound], the “Activity on astrocyte SACs” value [7] is reported as “No block”.
In the case of CC[N+](CC)(CC)CC [tetraethylammonium], the “blocking activity against SACs” value [2] is given as “low affinity blocking activity”.
In the case of GsMTx-4, the “effect on peak swelling-activated current (in words)” value ([5]; 5 μM GsMTx-4, 30 s after hypotonic exposure) is reported as “significantly reduced the peak current response”, the “reduction in peak swelling-activated current” value ([5]; 5 μM GsMTx-4, 30 s, after subtracting resting current, representative cell (Fig. 9 C)) is reported as ~75% and the “change in reversal potential of swelling-activated current” value ([5]; 5 μM GsMTx-4, statistically indistinguishable from 0 mV) is reported as “+2 mV”. The “reduction in swelling-activated anion current” value ([5]; adult astrocytes, discussion) was 40–50%, the “reduction in swelling-activated whole-cell current” value ([5]; hypotonically swollen astrocytes, potential not printed at place) was ~40% and the “recovery of swelling currents after washout” value ([5]; ∼4 min after washout of 5 μM GsMTx-4) was “partially recovered”. For the same compound, the “suppression of cardiac arrhythmias” value [10] was “ability to suppress cardiac arrhythmias”, the “effect on normal electrical activity of the heart” value [11] was “doesn't block normal electrical activity of the heart” and the “effect on whole-cell current” value [12] was “unaffected; also recorded: did not affect membrane currents”. The “I/I0 (ratio of blocked to unblocked current)” value ([7]; from data of Fig. 6, outside-out patches, −50 mV) was 0.083, the “dissociation rate constant k d” value ([7]; from washout time constant, n = 7 patches) was 0.21 s⁻¹ and the “state dependence of block” value ([7]; mechanism of action, closed channels) was “can act on closed channels”. The “block of SACs” value ([7]; outside-out patches, 1:1,000 dilution, 8 μg/ml, rapid upon superfusion) was “the block was complete”, the overall charge [13] was “+5” and the cell volume reduction ([14]; 0.4 μM GsMTx-4, 1.0T solution, averages from five cells) was 7%. The “cell volume after osmotic shrinkage” value ([14]; 0.4 μM GsMTx-4, 1.5T solution, averages from five cells) was “unaffected”, the “cell volume reduction relative to that produced by 1.5T saline” value ([14]; 0.4 μM GsMTx-4, isotonic) was ~40% and the “effect on ICl,swell” value ([15]; 0.4 μM GsMTx-4, isotonic (1.0T), averages from five cells) was “no effect”. For the same compound, the “effect on anion current” value ([15]; rabbit dilated cardiomyopathy model, concentration not printed at place) was “did not affect the anion current” and the “activity against voltage-sensitive whole-cell currents” value [16] was “no effect on whole-cell voltage-sensitive currents; also recorded: did not effect voltage-sensitive currents; also recorded: negligible activity”.
For Hanatoxin, the “K^+ channel block” value [17] is given as “K^+ channel blocker”.
In the case of “SNX-482: peptide toxin that blocks E-type Ca^2+ channels (GVDKAGCRYMFGGCSVNDDCCPRLGCHSLFSYCAWDLTFSD; UniProt P56854 1-41, looked up)”, the “E-type Ca^2+ channel block” value [18] is listed as “blocks E-type Ca^2+ channels”.
